In patent publication US7741521B2, “Inhibition of bid-induced cell-death using small organic molecules” (The Burnham Institute, priority 2004, dated 2010):

Experiments:
[1] = test system: HeLa cells transfected with a plasmid encoding tBID; experiment: tBID-induced cell death in transfected cells; format: cell-based; details: 50 µM; without compound 80±5%
Procedure: (§1) HEK 293T cells were transfected with 0.5 μg of plasmids encoding either GFP or GFP-tBID in 12 wells plate. After 3 hours transfection, various compounds were added in DMSO to the media. After 20 hours of further incubation, cells were collected and either lysed for caspase assays or fixed and stained with DAPI for determination of apoptosis^50. For caspase activity assays, 293T cells were lysed in lysis buffer (10 mM Hepes, pH 7.4, 142.2 mM KCl, 5 mM MgCl2, 0.5 mM EDTD, 0.5% NP-40) containing a protease inhibitor mixture (Roche Molecular Biochemicals). The lysates were normalized for protein concentration (10 μg), then incubated with 100 μM DEVD-AFC. Enzyme activity was determined by the release of AFC-fluorescence and Vmax was calculated (mean±Std. dev; n=3). For DAPI staining, 293T cells were fixed, washed with PBS, and stained with 0.1 mg/ml DAPI. The percentage of GFP-positive cells with apoptotic morphology (fragment nuclei or condensed chromatin) was determined (mean±Std. dev; n=3).
(§2) Compound II was also evaluated for its ability to inhibit BID-induced apoptosis in cell; for these experiments, HeLa cells were transfected with a plasmid encoding tBID, and effector caspase activity was measured in cell lysates 24 hours later. […] Moreover, tBID-induced cell death, as measured by caspase-3 activity, was reduced from 80±5% to 35±5% by 50 µM of compound II (FIG. 6E). […]

[2] = test system: HeLa cells transfected with a plasmid encoding tBID; experiment: Effector caspase activity in lysates of tBID-transfected cells; format: cell-based
Procedure: as §1, §2

caspase-8 = caspase-8 (Homo sapiens, UniProt Q14790); experiment: Caspase-8 mediated BID cleavage (SDS page); format: biochemical; details: concentrations used in the cellular assay
Chain of caspase-8 (Q14790 217-374 limits assumed, species assumed): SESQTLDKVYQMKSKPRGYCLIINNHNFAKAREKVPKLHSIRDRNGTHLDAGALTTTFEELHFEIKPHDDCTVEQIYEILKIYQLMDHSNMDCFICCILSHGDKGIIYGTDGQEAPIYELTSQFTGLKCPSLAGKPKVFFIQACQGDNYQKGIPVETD
Chain of caspase-8 (Q14790 385-479 limits assumed, species assumed): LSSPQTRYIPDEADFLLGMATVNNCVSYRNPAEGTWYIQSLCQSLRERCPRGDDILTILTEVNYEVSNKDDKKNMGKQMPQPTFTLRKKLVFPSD

tBID [3] = target: T1, tBID (Mus musculus, UniProt P70444); experiment: tBID association with isolated mitochondria (immunoblot with BID antibody); format: biochemical; details: at 20 μM
T1 construct: tBID was produced by cleavage of purified BID with caspase-8, as known in the art; made in house; host or cells: E. coli BL21 (BID), then cleaved in vitro with caspase-8
T1 sequence (P70444 60-195 limits assumed): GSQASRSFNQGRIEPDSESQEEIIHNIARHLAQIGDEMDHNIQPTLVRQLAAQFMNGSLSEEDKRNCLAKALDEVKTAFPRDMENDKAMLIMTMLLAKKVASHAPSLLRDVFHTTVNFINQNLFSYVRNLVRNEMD
T1 sequence (P70444 1-59 partner limits assumed): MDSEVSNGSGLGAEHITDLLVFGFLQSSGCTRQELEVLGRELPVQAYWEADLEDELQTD
Procedure: (§3) Compounds II-IX were tested in vitro for their ability to inhibit BID-mediated release of Smac using mitochondria isolated from HeLa cells (FIG. 6A). The first lane represents mitochondria incubated without tBID. All others received 100 ng tBID without or with compounds. Each compound was tested at a concentration of 50 μM. […] To preliminarily investigate the mechanism by which compound II reduces Smac-release from isolated mitochondria, the tBID protein was treated with different concentrations of BI-6C9, after which it was incubated with mitochondria, followed by analysis of the bound and unbound fractions by immunoblotting using BID antibody. The concentration of mitochondria-bound tBID diminished in response to increasing concentrations of compound II.

tBID [4] = target: T1, tBID; experiment: tBID-induced Smac release from isolated mitochondria; format: biochemical; details: for tBID-induced Smac release from mitochondria isolated from HeLa cells: 50 ng tBid
Procedure: 100 ng of tBID (cleaved by caspase 8) was pre-incubated with various concentrations of compounds for 15 minutes at 30° C. in HM buffer (10 mM Hepes, pH 7.4, 250 mM Mannitol, 10 mM KCl, 1.5 mM MgCl, 1 mM DTT, 1 mM EGTA), then 50 μg of isolated mitochondria from HCT116 cells were added to a final volume of 50 μl in HM buffer. After 1 hour incubation at 30° C., the samples were centrifuged at 10,000×g for 5 minutes at 4° C. and the supernatant was analyzed by SDS-PAGE/immunoblotting using anti-SMAC antibody.
as §3
About 50 ng of tBID cleaved by […] was pre-incubated for about 15 minutes at about 30° C. with various concentrations of compounds I, II, and X. Then, about 50 μg of isolated mitochondria from Hela cells were added to the reaction system. After about 1 hour of incubation at about 30° C., the samples were centrifuged at 10,000×g for about 5 minutes at about 4° C., and the supernatant was analyzed by SDS-PAGE/immunoblotting using Smac antibody. The results of the analysis are presented on FIG. 8. As shown by FIG. 9, compound I is a strong binder for BID.
Some results of comparative studies of compounds I and II are shown on FIG. 10. […] The first lane represents mitochondria incubated without tBID. All others received 50 ng tBid without or with bi-dentate compound.

caspase-3 = target: T2, caspase-3 (Homo sapiens, UniProt P42574); experiment: Caspase-3 in vitro assay; format: biochemical; details: concentrations used in the cellular assay
T2 sequence (P42574 29-175 limits assumed): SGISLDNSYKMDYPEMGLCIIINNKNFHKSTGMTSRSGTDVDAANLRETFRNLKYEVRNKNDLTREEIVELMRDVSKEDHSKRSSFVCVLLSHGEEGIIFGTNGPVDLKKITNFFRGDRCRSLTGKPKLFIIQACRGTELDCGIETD
T2 sequence (P42574 176-277 limits assumed): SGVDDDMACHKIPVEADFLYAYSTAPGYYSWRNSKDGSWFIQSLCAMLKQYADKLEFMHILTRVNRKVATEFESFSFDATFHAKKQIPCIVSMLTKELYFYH

[5] = test system: rat embryonic cortical neurons; experiment: Nuclear translocation of AIF in neurons exposed to glutamate; format: cell-based; details: glutamate 20 μM, 8 h
Procedure: Neuronal cell death was quantified after staining the nuclei with the DNA-binding fluorochrome Hoechst 33258 (Molecular Probes) or by the MTT assay. Immunocytochemistry was performed as described in the art, with a polyclonal anti-AIF antibody (sc-9416, Santa Cruz; 1:200) followed by incubation a biotinylated anti-goat IgG antibody (1:200) Vector Laboratories) and Oregon Green-streptavidin (Molecular Probes). After counterstaining with Hoechst 33342 images were acquired using a confocal laser scanning microscope (Axiovert, Zeiss) with a 60× oil immersion objective (514-nm excitation and 535-nm emission for detection of Oregon Green and 352-nm excitation and 460-nm emission for detection of Hoechst 33342).
Pretreatment with Compound I preserves nuclear morphology (blue fluorescence, Hoechst 33342) and prevents AIF translocation. […] Mean values and SD of 4 dishes per group are presented.

Structure (SMILES)	tBID-induced cell death [1]	reduction of caspase-3 activity in tBID-transfected cells ([2]; 50 µM, 24 hours after transfection)	caspase activity in tBID-transfected cells ([2]; 100 µM)	effect on caspase-8 mediated BID cleavage (caspase-8)	inhibition of tBID association with isolated mitochondria (tBID [3])	tBID-induced Smac release from mitochondria isolated from HeLa cells (tBID [4])	inhibition at 50 µM (tBID [4]; 50 μM compound, isolated mitochondria)	reduction of tBID-induced Smac release (tBID [4]; 50 μM, 100 ng tBID, mitochondria isolated from HeLa cells)	decrease of Smac release, dose experiment (tBID [4]; at concentrations as low as 20 μM)	inhibition of caspase-3 (caspase-3)	nuclear translocation of AIF [5]
COc1ccc(S(=O)(=O)NCCCC(=O)Nc2ccc(Sc3ccc(N)cc3)cc2)cc1 [Compound II, N-[4-(4-amino-phenylsulfanyl)-phenyl]-4-(4-methoxy-benzenesulfonylamino)-butyramide]	35±5%	~4 fold	totally blocked	does not impair	effective	block	100%	significantly reduce	dramatically decreased	does not inhibit	–
Nc1ccc(Sc2ccc(NC(=O)CNC(=O)c3ccc(O)cc3O)cc2)cc1 [Compound I, N-((4-(4-aminophenylthio)phenylcarbamoyl)methyl)-2,4-dihydroxybenzamide]	–	–	–	–	–	block	–	–	–	–	prevented
